Laboratory results: US9790169B2, “IDO inhibitors” (BRISTOL-MYERS SQUIBB COMPANY, priority 2015, dated 2017)
pIC50: −log10 of the molar value.

Target: human IDO1 (Homo sapiens, UniProt P14902)
Test: Assessment of human IDO-1 inhibitory activity in HEK cells (human IDO1/HEK293 cells, kynurenine read-out with Ehrlich reagent, absorbance 490 nm)
Assay type: cell-based
Set-up: expressed in transfected cells
Details: HEK Human IDO-1 cellular assay
Method in brief: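 HEK293 cells stably expressing human IDO1 were seeded at 10,000 per well in phenol red-free RPMI with 10% FBS, treated with compound for 20 h at 37 °C. Kynurenine was measured after TCA (0.2% final) and 30 min at 50 °C, using Ehrlich reagent, A490. IC50 normalised to DMSO (0%) and 500 nM reference standard (100%).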

Sequence of human IDO1 (P14902 whole entry): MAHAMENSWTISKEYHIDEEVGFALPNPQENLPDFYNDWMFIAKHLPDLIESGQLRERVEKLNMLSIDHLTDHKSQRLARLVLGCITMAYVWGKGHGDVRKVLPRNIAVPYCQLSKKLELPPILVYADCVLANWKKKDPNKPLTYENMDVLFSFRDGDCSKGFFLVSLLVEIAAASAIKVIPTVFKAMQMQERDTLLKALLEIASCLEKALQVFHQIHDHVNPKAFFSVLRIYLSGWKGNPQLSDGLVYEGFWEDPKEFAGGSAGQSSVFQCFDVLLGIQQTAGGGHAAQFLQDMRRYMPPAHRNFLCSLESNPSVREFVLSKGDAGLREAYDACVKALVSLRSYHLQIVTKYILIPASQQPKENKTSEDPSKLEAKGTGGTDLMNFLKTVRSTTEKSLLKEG

pIC50	Compound
< 7.30	CC(C)CN(CC(C)C)c1ccc(C(CC(=O)O)CN(C)C)cc1NC(=O)Nc1ccc(Cl)cc1F (racemic) [Example 1000, (+/−)-3-(3-(3-(4-Chloro-2-fluorophenyl)ureido)-4-(diisobutylamino)phenyl)-4-(dimethylamino)butanoic acid]
> 8.30	CCOc1ccc(NC(=O)Nc2cc(C(CC)CC(=O)O)c(F)cc2N(CC(C)C)CC(C)C)c(F)c1 (racemic) [Example 1137, (±)-3-(4-(Diisobutylamino)-5-(3-(4-ethoxy-2-fluorophenyl)ureido)-2-fluorophenyl)pentanoic acid]
> 8.30	CC[C@@H](CC(=O)O)c1ccc(N(CC)C2CCOCC2)c(Nc2ccc(Cl)c(OC)c2)c1 (single isomer, unassigned) [Example 481]
< 7.30	CC[C@H](CC(=O)O)c1ccc(N2CCOC[C@@H]2C(C)C)c(NC(=O)Nc2ccc(C)cc2)c1 (single isomer, unassigned) [Example 85]
> 7.30	CCCCc1ccc(NC(=O)Nc2cc(C(CC)CC(=O)O)cc(F)c2N(CC(C)C)CC(C)C)cc1 (racemic) [Example 973, (+/−)-3-(3-(3-(4-butylphenyl)ureido)-4-(diisobutylamino)-5-fluorophenyl)pentanoic acid]
< 7.30	CCOc1ccc(Nc2cc([C@H](CC)CC(=O)O)ccc2N2CCC[C@H]2C(C)(C)O)cc1 (single isomer, unassigned) [Example 816]
> 7.30	COCC(CC(=O)O)c1ccc(N(CC2CC2)C2CCOCC2)c(Nc2ccc(C#N)c(C)c2)c1 (single isomer, unassigned) [Example 692, 3-(3-((4-cyano-3-methylphenyl)amino)-4-((cyclopropylmethyl) (tetrahydro-2H-pyran-4-yl)amino)phenyl)-4-methoxybutanoic acid]
< 7.30	CCN(c1ccc(C(CC(=O)O)c2ccccc2)cc1Nc1ccc(Cl)cc1F)C1CCOCC1 (single isomer, unassigned) [Example 592, 3-(3-((4-chloro-2-fluorophenyl)amino)-4-(ethyl(tetrahydro-2H-pyran-4-yl)amino)phenyl)-3-phenylpropanoic acid]
< 7.30	CC[C@H](CC(=O)O)c1ccc(N(CC(C)C)C2CCS(=O)(=O)CC2)c(NC(=O)Nc2ccc(C)cc2)c1 (single isomer, unassigned) [Example 209]
< 7.30	CC[C@H](CC(=O)O)c1ccc(N2CCOC[C@@H]2C(C)C)c(NC(=O)Nc2ccc(OC)cc2F)c1 (single isomer, unassigned) [Example 87]
> 8.30	CCN(c1ccc(C(C)CC(=O)O)cc1Nc1ccc(Cl)cc1)C1CCOCC1 (single isomer, unassigned) [Example 612 E1, 3-(3-((4-Chlorophenyl)amino)-4-(ethyl(tetrahydro-2H-pyran-4-yl)amino)phenyl)butanoic acid]
> 7.30	COCC(CC(=O)O)c1ccc(N(CC(C)C)C2CCCCC2)c(NC(=O)Nc2cc(C)on2)c1 (racemic) [Example 986, (+/−)-3-(4-(Cyclohexyl(isobutyl)amino)-3-(3-(5-methylisoxazol-3-yl)ureido)phenyl)-4-methoxybutanoic acid]
> 7.30	COCC(CC(=O)O)c1cc(F)c(N(CC(C)C)C2CCCCC2)c(NC(=O)Cc2ccc(Cl)cc2F)c1 (single isomer, unassigned) [Example 1172, 3-(3-(2-(4-chloro-2-fluorophenyl)acetamido)-4-(cyclohexyl(isobutyl)amino)-5-fluorophenyl)-4-methoxybutanoic acid]
> 7.30	CCC(CC(=O)O)c1ccc(N(CC)C2CCCOC2)c(Nc2cnc(OC)nc2)c1 (single isomer, unassigned) [Example 71, 3-(4-(ethyl(tetrahydro-2H-pyran-3-yl)amino)-3-((2-methoxypyrimidin-5-yl)amino)phenyl)pentanoic acid]
< 7.30	COCC(CC(=O)O)c1ccc(N(CC(C)C)CC(C)C)c(NC(=O)Nc2cncnc2)c1 (single isomer, unassigned) [997-1]
> 8.30	CCC(CC(=O)O)c1ccc(N(CC(C)C)C2CCCCC2)c(Nc2ccc(F)cc2)c1 (single isomer, unassigned) [Example 311, 3-(4-(cyclohexyl(isobutyl)amino)-3-((4-fluorophenyl)amino)phenyl)pentanoic acid]
> 7.30	COCC(CC(=O)O)c1ccc(N(CC(C)C)CC(C)C)c(NC(=O)Nc2cc(C)on2)c1 (single isomer, unassigned) [999-1]
> 7.30	CCN(c1ccc(C(C)CC(=O)O)cc1NC(=O)Nc1ccc(C)cc1)C1CCOCC1 (single isomer, unassigned) [Example 639, 3-(4-(ethyl(tetrahydro-2H-pyran-4-yl)amino)-3-(3-(p-tolyl)ureido)phenyl)butanoic acid]
< 7.30	CCC(CC(=O)O)c1ccc(N(CC(C)C)C2CCCCC2)c(Nc2ccc3c(c2)OC(F)(F)O3)c1 (single isomer, unassigned) [Example 315, 3-(4-(Cyclohexyl(isobutyl)amino)-3-((2,2-difluorobenzo[d][1,3]dioxol-5-yl)amino)phenyl)pentanoic acid]

pIC50	Compound
> 7.30	CC[C@H](CC(=O)O)c1ccc(N(CC)C2CCOCC2)c(Nc2ccc(Cl)c(OC)c2)c1 (single isomer, unassigned) [Example 521]
< 7.30	CCN(c1ccc(C(CC(=O)O)c2ccccc2)cc1NC(=O)Nc1ccc(Cl)cc1F)C1CCOCC1 (single isomer, unassigned) [Example 595, 3-(3-(3-(4-chloro-2-fluorophenyl)ureido)-4-(ethyl(tetrahydro-2H-pyran-4-yl)amino)phenyl)-3-phenylpropanoic acid]
> 7.30	Cc1cc(NC(=O)Nc2cc(C(CC(=O)O)C3CC3)ccc2N(CC(C)C)C2CCOCC2)no1 (racemic) [Example 1200, (+/−)-3-Cyclopropyl-3-(4-(isobutyl(tetrahydro-2H-pyran-4-yl)amino)-3-(3-(5-methylisoxazol-3-yl)ureido)phenyl)propanoic acid]
> 7.30	CCN(c1ccc(C(C)CC(=O)O)cc1Nc1cnc(C)nc1)C1CCOCC1 (single isomer, unassigned) [Example 623, 3-(4-(ethyl(tetrahydro-2H-pyran-4-yl)amino)-3-((2-methylpyrimidin-5-yl)amino)phenyl)butanoic acid]
> 8.30	CCC(CC(=O)O)c1ccc(N(CC2CC2)C2CCOCC2)c(Nc2ccc(Cl)cc2)c1 (single isomer, unassigned) [Example 702, 3-(3-((4-chlorophenyl)amino)-4-((cyclopropylmethyl) (tetrahydro-2H-pyran-4-yl)amino)phenyl)pentanoic acid]
< 7.30	CC[C@H](CC(=O)O)c1ccc(N2CCC[C@@H]2C(C)(C)O)c(NC(=O)Nc2ccc(C)cc2)c1 (single isomer, unassigned) [Example 774]
> 8.30	CCC(CC(=O)O)c1cc(NC(=O)Nc2ccc(C)cc2F)c(N(CC(C)C)C2CCCCC2)cc1F (racemic) [Example 1119, (±)-3-(4-(Cyclohexyl(isobutyl)amino)-2-fluoro-5-(3-(2-fluoro-4-methylphenyl)ureido)phenyl)pentanoic acid]
> 7.30	CC[C@H](CC(=O)O)c1ccc(N(CC)C2CCOCC2)c(NC(=O)Nc2ccc(OC)cc2)c1 (single isomer, unassigned) [Example 529]
> 8.30	CCC(CC(=O)O)c1ccc(N2CCC[C@H]2C(C)(C)O)c(Nc2ccc(Cl)cc2)c1 (single isomer, unassigned) [Example 820]
> 7.30	C[C@@H]1CN(c2ccc(C(C)(C)CC(=O)O)cc2Nc2ccc(F)cc2)C[C@H](C)O1 [Example 732, 3-(4-((2S,6R)-2,6-dimethylmorpholino)-3-((4-fluorophenyl)amino)phenyl)-3-methylbutanoic acid]
< 7.30	3-(4-(isobutyl(tetrahydro-2H-pyran-4-yl)amino)-3-(3-(4-phenoxyphenyl)ureido)phenyl)butanoic acid [Example 962]
> 8.30	CCCN(c1ccc([C@@H](CC)CC(=O)O)cc1Nc1ccc2c(c1)OC(F)(F)O2)C1CCOCC1 (single isomer, unassigned) [Example 539]
> 8.30	CCC(CC(=O)O)c1ccc(N(CC(C)C)C2CCCCC2)c(Nc2ccc(Cl)c(F)c2)c1 (single isomer, unassigned) [Example 310, 3-(3-((4-chloro-3-fluorophenyl)amino)-4-(cyclohexyl(isobutyl)amino)phenyl)pentanoic acid]
> 8.30	CCC(CC(=O)O)c1cc(NC(=O)Nc2ccc3c(c2)OCO3)c(N(CC(C)C)C2CCCCC2)cc1F (racemic) [Example 1110, (±)-3-(5-(3-(Benzo[d][1,3]dioxol-5-yl)ureido)-4-(cyclohexyl(isobutyl)amino)-2-fluorophenyl)pentanoic acid]
< 7.30	CCc1ccc(Nc2cc(C(C)(C)CC(=O)O)ccc2N2C[C@@H](C)O[C@@H](C)C2)cc1 [Example 734, 3-(4-((2S,6R)-2,6-dimethylmorpholino)-3-((4-ethylphenyl)amino)phenyl)-3-methylbutanoic acid]
> 8.30	CCN(c1ccc(C(CC(=O)O)c2ccccc2)cc1Nc1ccc(Cl)cc1)C1CCOCC1 (single isomer, unassigned) [Example 580, 3-(3-((4-chlorophenyl)amino)-4-(ethyl(tetrahydro-2H-pyran-4-yl)amino)phenyl)-3-phenylpropanoic acid]
< 7.30	COCC(CC(=O)O)c1ccc(N(CC2CC2)C2CCOCC2)c(Nc2ccc(Cl)c(OCC(F)(F)F)c2)c1 (single isomer, unassigned) [Example 682, 3-(3-((4-chloro-3-(2,2,2-trifluoroethoxy)phenyl)amino)-4-((cyclopropylmethyl) (tetrahydro-2H-pyran-4-yl)amino)phenyl)-4-methoxybutanoic acid]
< 7.30	COc1ncc(Nc2cc(C(C)CC(=O)O)ccc2N2C[C@@H](C)O[C@@H](C)C2)cn1 (single isomer, unassigned) [Example 741]
> 8.30	CCc1ccc(Nc2cc([C@@H](COC)CC(=O)O)ccc2N(CC)C2CCOCC2)cc1 (single isomer, unassigned) [Example 374]
